Data as given in patent US9452169B2, “Substituted diketopiperazines and their use as oxytocin antagonists” (Glaxo Group Limited, priority 2003, dated 2016).

Test system: rats
Settings: rat, in vivo, 30 mg/kg

CC[C@H](C)[C@@H]1C(=O)N[C@H](C2Cc3ccccc3C2)C(=O)N1[C@@H](C(=O)N1CCOCC1)c1coc(C)n1 [Example 1, (3R,6R)-3-(2,3-dihydro-1H-inden-2-yl)-1-[(1R)-1-(2-methyl-1,3-oxazol-4-yl)-2-(4-morpholinyl)-2-oxoethyl]-6-[(1S)-1-methylpropyl]-2,5-piperazinedione]
adverse toxicological effects: no adverse toxicological effects were observed
